# Data reported in the kinase profiling compilation of Christmann-Franck et al. (2016).
# “And” between values parts separate entries of the source, which are not always exact repeats. Equal entries are not always repeated.
# What was measured:
# Experiment in all cases: radiometric filter-binding kinase assay, Kinase HotSpot
# Conditions in all cases: compound 0.5 µM; ATP 10 µM
# [1] = target: WEE1 (human) (UniProt P30291)
# [2] = target: PRKG1 (human) (UniProt Q13976)
# [3] = target: PRKCZ (human) (UniProt Q05513)
# [4] = target: MAPK11 (human) (UniProt Q15759)
# [5] = target: WNK3 (human) (UniProt Q9BYP7)
# [6] = target: MST4 (human) (UniProt Q9P289)
# MST4 (human), sequence (Q9P289 whole entry, looked up): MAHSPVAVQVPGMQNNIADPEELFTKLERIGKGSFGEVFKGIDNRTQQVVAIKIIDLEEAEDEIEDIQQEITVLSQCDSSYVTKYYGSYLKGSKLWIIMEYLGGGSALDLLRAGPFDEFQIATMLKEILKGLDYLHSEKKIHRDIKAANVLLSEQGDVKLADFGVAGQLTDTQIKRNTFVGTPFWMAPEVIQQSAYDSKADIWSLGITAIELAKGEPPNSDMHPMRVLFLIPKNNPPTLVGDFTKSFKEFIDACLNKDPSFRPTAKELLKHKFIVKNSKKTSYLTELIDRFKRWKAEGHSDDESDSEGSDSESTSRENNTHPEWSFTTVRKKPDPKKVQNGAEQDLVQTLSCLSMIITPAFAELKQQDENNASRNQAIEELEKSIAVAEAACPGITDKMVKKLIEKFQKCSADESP
# [7] = target: MARK3 (human) (UniProt P27448)
# [8] = target: LYN (human) (UniProt P07948)
# LYN (human), sequence (P07948 whole entry, looked up): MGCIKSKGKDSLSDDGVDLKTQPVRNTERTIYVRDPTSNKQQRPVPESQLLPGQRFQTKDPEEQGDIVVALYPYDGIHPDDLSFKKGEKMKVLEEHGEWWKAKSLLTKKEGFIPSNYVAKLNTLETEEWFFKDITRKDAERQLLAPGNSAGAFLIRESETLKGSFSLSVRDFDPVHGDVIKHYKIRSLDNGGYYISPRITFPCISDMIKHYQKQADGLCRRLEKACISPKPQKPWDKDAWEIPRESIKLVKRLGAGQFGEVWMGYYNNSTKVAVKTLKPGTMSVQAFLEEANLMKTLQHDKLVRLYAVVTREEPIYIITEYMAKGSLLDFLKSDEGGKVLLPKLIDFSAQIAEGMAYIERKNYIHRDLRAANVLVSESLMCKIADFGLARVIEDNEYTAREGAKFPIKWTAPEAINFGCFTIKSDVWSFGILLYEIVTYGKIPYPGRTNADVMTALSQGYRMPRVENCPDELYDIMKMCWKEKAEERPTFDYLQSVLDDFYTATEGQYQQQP
# [9] = target: ERBB2 (human) (UniProt P04626)
# ERBB2 (human), sequence (P04626 whole entry, looked up): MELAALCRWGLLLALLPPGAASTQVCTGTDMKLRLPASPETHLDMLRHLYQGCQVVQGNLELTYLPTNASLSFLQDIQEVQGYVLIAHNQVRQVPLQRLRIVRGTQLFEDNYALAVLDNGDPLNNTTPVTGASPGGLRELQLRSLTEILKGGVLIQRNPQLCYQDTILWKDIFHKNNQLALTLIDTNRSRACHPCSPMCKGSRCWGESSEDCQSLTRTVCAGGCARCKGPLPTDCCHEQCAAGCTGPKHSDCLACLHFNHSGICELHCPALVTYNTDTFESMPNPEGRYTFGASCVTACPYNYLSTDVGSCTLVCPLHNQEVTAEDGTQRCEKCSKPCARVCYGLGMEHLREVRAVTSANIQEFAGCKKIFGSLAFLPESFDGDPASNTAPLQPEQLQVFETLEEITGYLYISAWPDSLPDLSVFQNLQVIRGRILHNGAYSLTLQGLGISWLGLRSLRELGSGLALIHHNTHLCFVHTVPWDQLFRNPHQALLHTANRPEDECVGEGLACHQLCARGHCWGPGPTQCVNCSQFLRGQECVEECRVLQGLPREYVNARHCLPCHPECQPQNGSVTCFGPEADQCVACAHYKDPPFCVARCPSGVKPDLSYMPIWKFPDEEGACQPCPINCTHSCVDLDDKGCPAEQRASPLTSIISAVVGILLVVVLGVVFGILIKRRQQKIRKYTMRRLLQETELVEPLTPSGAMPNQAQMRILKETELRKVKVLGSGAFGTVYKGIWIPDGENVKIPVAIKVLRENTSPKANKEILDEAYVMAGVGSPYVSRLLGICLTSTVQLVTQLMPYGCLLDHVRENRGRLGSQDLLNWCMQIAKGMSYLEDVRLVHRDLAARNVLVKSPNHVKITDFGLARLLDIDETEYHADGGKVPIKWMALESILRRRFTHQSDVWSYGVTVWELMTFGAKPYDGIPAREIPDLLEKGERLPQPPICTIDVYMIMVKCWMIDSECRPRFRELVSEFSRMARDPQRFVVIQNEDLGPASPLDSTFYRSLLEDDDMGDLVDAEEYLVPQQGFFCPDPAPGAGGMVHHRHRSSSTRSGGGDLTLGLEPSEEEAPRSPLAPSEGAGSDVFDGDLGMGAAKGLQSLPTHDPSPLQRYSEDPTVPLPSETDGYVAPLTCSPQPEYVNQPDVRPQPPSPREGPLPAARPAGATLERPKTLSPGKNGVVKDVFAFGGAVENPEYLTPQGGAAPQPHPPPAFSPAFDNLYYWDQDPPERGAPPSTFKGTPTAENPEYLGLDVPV
# [10] = target: CSF1R (human) (UniProt P07333)
# [11] = target: FGFR1 (human) (UniProt P11362)
# [12] = target: FGFR2 (human) (UniProt P21802)
# [13] = target: SGK2 (human) (UniProt Q9HBY8)
# [14] = target: BMX (human) (UniProt P51813)
# [15] = target: SGK3 (human) (UniProt Q96BR1)
# [16] = target: FGFR3 (human) (UniProt P22607)
# [17] = target: TEC (human) (UniProt P42680)
# [18] = target: PLK1 (human) (UniProt P53350)
# [19] = target: RPS6KA1 KD1 KD2 (human) (UniProt Q15418)
# [20] = target: CDK5 CDK5R1 p35 (human) (UniProt Q00535+Q15078)
# [21] = target: MARK4 (human) (UniProt Q96L34)
# [22] = target: CLK4 (human) (UniProt Q9HAZ1)
# [23] = target: ACVR1B (human) (UniProt P36896)
# [24] = target: PTK2B (human) (UniProt Q14289)
# [25] = target: STK4 (human) (UniProt Q13043)
# [26] = target: ROCK2 (human) (UniProt O75116)
# ROCK2 (human), sequence (O75116 whole entry, looked up): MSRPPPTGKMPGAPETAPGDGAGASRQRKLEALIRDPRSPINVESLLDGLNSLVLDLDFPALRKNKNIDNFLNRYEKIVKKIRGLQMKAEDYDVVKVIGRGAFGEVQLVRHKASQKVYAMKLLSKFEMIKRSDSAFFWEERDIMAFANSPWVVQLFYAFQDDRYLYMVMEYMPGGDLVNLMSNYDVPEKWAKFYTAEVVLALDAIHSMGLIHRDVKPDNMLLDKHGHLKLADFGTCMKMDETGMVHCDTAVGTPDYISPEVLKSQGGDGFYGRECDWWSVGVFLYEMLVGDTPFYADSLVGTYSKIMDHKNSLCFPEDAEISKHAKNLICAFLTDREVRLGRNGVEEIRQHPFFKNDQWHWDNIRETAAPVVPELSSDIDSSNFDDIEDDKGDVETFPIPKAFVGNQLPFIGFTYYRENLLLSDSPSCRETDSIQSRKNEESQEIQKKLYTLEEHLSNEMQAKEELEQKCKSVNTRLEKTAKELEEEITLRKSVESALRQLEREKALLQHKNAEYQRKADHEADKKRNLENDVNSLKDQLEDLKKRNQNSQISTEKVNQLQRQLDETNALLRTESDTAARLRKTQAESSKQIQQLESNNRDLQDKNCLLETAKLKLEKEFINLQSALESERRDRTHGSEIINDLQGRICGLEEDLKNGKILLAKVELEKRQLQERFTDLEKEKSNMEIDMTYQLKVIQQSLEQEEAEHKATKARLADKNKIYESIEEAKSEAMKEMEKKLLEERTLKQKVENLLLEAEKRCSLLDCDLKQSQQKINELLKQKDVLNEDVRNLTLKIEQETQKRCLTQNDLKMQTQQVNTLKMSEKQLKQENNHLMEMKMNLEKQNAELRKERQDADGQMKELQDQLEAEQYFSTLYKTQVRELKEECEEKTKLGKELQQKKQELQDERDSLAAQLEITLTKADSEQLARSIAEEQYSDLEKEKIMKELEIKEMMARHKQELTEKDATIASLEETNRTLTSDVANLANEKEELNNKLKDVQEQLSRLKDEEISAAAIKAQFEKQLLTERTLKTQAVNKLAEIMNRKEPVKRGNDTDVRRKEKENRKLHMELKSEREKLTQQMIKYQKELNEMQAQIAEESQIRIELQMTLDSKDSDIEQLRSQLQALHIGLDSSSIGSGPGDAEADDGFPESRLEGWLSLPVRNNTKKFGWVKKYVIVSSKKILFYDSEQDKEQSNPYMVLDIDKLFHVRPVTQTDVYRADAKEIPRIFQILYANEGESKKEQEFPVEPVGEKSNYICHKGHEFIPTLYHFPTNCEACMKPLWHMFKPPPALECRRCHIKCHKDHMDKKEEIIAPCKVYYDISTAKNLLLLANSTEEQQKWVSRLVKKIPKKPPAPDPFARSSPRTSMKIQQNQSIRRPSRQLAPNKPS
# [27] = target: ITK (human) (UniProt Q08881)
# [28] = target: STK16 (human) (UniProt O75716)
# STK16 (human), sequence (O75716 whole entry, looked up): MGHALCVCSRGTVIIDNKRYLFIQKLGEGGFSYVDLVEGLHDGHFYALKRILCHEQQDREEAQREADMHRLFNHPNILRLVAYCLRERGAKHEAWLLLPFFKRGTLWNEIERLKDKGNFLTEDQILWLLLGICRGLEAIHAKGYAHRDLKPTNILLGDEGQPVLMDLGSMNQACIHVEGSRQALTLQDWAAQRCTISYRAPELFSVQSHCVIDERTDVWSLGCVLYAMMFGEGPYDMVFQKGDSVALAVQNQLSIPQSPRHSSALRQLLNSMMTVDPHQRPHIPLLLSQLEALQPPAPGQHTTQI
# [29] = target: AKT3 (human) (UniProt Q9Y243)
# [30] = target: PRKCH (human) (UniProt P24723)
# [31] = target: CAMKK1 (human) (UniProt Q8N5S9)
# [32] = target: RPS6KA6 KD1 KD2 (human) (UniProt Q9UK32)
# [33] = target: PHKG1 (human) (UniProt Q16816)
# [34] = target: MAPK3 (human) (UniProt P27361)
# [35] = target: SIK2 (human) (UniProt Q9H0K1)
# [36] = target: LCK (human) (UniProt P06239)
# [37] = target: MAP3K8 (human) (UniProt P41279)
# MAP3K8 (human), sequence (P41279 whole entry, looked up): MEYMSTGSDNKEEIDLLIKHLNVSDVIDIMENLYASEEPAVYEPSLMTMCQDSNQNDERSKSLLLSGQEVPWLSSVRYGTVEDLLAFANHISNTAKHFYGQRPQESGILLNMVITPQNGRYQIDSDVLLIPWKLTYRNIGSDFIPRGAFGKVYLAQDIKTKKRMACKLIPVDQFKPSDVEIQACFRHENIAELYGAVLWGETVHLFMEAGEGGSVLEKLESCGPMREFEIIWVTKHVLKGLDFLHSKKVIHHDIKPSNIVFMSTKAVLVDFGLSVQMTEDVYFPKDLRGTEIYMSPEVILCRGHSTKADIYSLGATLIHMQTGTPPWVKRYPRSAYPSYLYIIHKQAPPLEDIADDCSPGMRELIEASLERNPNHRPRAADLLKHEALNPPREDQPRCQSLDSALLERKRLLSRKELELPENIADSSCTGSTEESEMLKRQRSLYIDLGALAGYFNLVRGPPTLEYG
# [38] = target: PRKD1 (human) (UniProt Q15139)
# [39] = target: OXSR1 (human) (UniProt O95747)
# OXSR1 (human), sequence (O95747 whole entry, looked up): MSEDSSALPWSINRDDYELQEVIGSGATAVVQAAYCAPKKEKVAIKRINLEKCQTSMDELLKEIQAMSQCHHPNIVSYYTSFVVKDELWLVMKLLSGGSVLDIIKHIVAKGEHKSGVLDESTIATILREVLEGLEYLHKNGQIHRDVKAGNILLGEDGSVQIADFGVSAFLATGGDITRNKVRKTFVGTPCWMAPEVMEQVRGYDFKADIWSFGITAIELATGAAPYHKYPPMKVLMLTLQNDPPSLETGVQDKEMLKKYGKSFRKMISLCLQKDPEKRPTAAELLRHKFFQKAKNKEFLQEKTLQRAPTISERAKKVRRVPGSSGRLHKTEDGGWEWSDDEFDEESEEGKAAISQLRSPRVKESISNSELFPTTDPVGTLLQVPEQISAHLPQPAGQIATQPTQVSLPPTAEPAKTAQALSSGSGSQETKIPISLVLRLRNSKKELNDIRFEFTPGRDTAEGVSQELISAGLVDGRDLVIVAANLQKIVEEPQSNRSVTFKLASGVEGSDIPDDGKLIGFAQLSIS
# [40] = target: DYRK1A (human) (UniProt Q13627)
# [41] = target: CSNK1D (human) (UniProt P48730)
# [42] = target: EPHB4 (human) (UniProt P54760)
structure (smiles),measurement,setting,value
Nc1cccc(-c2cc3c(Oc4cccc(O)c4)ncnc3[nH]2)c1,residual activity,[1],85.5%
same,residual activity,[2],103%
same,residual activity,[3],94%
same,residual activity,[4],108%
same,residual activity,[5],88.5%
same,residual activity,[6],83.8%
same,residual activity,[7],77.5%
same,residual activity,[8],11.1% and 21.4%
same,residual activity,[9],76.6%
same,residual activity,[10],13.6%
same,residual activity,[11],39.3%
same,residual activity,[12],46.1%
same,residual activity,[13],96.2%
same,residual activity,[14],24.3%
same,residual activity,[15],117%
same,residual activity,[16],67.9%
same,residual activity,[17],108%
same,residual activity,[18],104%
same,residual activity,[19],105%
same,residual activity,[20],72.2%
same,residual activity,[21],68.8%
same,residual activity,[22],104%
same,residual activity,[23],122%
same,residual activity,[24],65.6%
same,residual activity,[25],94.4%
same,residual activity,[26],94.5%
same,residual activity,[27],102%
same,residual activity,[28],70.4%
same,residual activity,[29],96.2%
same,residual activity,[30],90%
same,residual activity,[31],113%
same,residual activity,[32],95.4%
same,residual activity,[33],81.5%
same,residual activity,[34],86.9%
same,residual activity,[35],69.4%
same,residual activity,[36],24.2%
same,residual activity,[37],99.6%
same,residual activity,[38],94.4%
same,residual activity,[39],119%
same,residual activity,[40],103%
same,residual activity,[41],96.8%
Cc1ccc(Nc2nccc(N(C)c3ccc4c(C)n(C)nc4c3)n2)cc1S(N)(=O)=O,residual activity,[1],95.3%
same,residual activity,[2],103% and 95.1%
same,residual activity,[3],97.7%
same,residual activity,[4],93.3%
same,residual activity,[5],98.6%
same,residual activity,[6],108%
same,residual activity,[7],96.6%
same,residual activity,[8],52.1% and 58.9%
same,residual activity,[9],103%
same,residual activity,[12],40.2%
same,residual activity,[13],160%
same,residual activity,[14],93.4%
same,residual activity,[15],97.5%
same,residual activity,[16],39.3%
same,residual activity,[17],101%
same,residual activity,[18],99.5%
same,residual activity,[19],92.8%
same,residual activity,[20],99.3%
same,residual activity,[21],98%
same,residual activity,[42],93.8%
same,residual activity,[22],91.7%
same,residual activity,[23],100%
same,residual activity,[24],92%
same,residual activity,[25],98.4%
same,residual activity,[26],91.1%
same,residual activity,[27],115%
same,residual activity,[28],43.8%
same,residual activity,[29],93.3%
same,residual activity,[30],110%
same,residual activity,[31],72%
same,residual activity,[32],96.8%
same,residual activity,[33],92.5%
same,residual activity,[34],102%
same,residual activity,[35],84.1%
same,residual activity,[36],43.3%
same,residual activity,[37],95.2%
same,residual activity,[38],96.9%
same,residual activity,[39],103%
same,residual activity,[41],95.4%
CCN(CC)CCNC(=O)c1c(C)[nH]c(/C=C2\C(=O)Nc3ccc(F)cc32)c1C,residual activity,[1],91.8%
same,residual activity,[2],65.3% and 88.8%
same,residual activity,[3],91.7%
same,residual activity,[4],99.9%
same,residual activity,[5],94.3%
same,residual activity,[6],110%
same,residual activity,[7],30.4%
same,residual activity,[8],23% and 34.6%
same,residual activity,[9],105%
same,residual activity,[10],7.28%
same,residual activity,[11],66.1%
same,residual activity,[12],50.5%
same,residual activity,[13],93.1%
same,residual activity,[14],99%
same,residual activity,[15],101%
same,residual activity,[16],39.7%
same,residual activity,[17],94.8%
same,residual activity,[18],96.4%
same,residual activity,[19],28%
same,residual activity,[21],24.7%
same,residual activity,[22],26.3%
same,residual activity,[23],101%
same,residual activity,[24],38.3%
same,residual activity,[25],10.7%
same,residual activity,[26],72.1%
same,residual activity,[27],64.3%
same,residual activity,[28],55.7%
same,residual activity,[29],71.7%
same,residual activity,[30],112%
same,residual activity,[31],52.1%
same,residual activity,[32],17.5%
same,residual activity,[33],5.12%
same,residual activity,[35],27.8%
same,residual activity,[37],117%
same,residual activity,[38],20%
same,residual activity,[39],105%
same,residual activity,[40],56.9%
same,residual activity,[41],31.8%
O=S(=O)(c1cccc2cnccc12)N1CCCNCC1,residual activity,[1],99.9%
same,residual activity,[2],79.6% and 87.7%
same,residual activity,[3],94.7%
same,residual activity,[4],91.9%
same,residual activity,[5],98.1%
same,residual activity,[6],90%
same,residual activity,[8],102% and 106%
same,residual activity,[9],108%
same,residual activity,[10],97.9%
same,residual activity,[11],94.6%
same,residual activity,[12],97.6%
same,residual activity,[13],91.9%
same,residual activity,[14],104%
same,residual activity,[15],91.6%
same,residual activity,[16],94.4%
same,residual activity,[17],109%
same,residual activity,[18],103%
same,residual activity,[19],89.2%
same,residual activity,[21],103%
same,residual activity,[42],107%
same,residual activity,[22],97.1%
same,residual activity,[23],100%
same,residual activity,[24],90.6%
same,residual activity,[25],94.8%
same,residual activity,[27],90.7%
same,residual activity,[28],91.7%
same,residual activity,[29],94.1%
same,residual activity,[30],84%
same,residual activity,[31],108%
same,residual activity,[32],94%
same,residual activity,[33],90.8%
same,residual activity,[34],96.1%
same,residual activity,[35],97.7%
same,residual activity,[36],101%
same,residual activity,[37],91.8%
same,residual activity,[38],65.1%
same,residual activity,[40],99.4%
same,residual activity,[41],99.7%
O=C(Nc1cccc(Nc2nccc(Nc3cccc(C(F)(F)F)c3)n2)c1)C1CC1,residual activity,[1],95.6%
same,residual activity,[2],97.6% and 99.3%
same,residual activity,[3],98.8%
same,residual activity,[4],103%
same,residual activity,[5],105%
same,residual activity,[6],84.4%
same,residual activity,[7],102%
same,residual activity,[8],91.9% and 99.9%
same,residual activity,[9],93.8%
same,residual activity,[10],63.1%
same,residual activity,[11],99.6%
same,residual activity,[12],103%
same,residual activity,[13],118%
same,residual activity,[14],83.6%
same,residual activity,[15],111%
same,residual activity,[16],95%
same,residual activity,[17],158%
same,residual activity,[18],91.7%
same,residual activity,[19],92.8%
same,residual activity,[20],105%
same,residual activity,[21],108%
same,residual activity,[42],91.3%
same,residual activity,[22],84.3%
same,residual activity,[23],110%
same,residual activity,[24],90.9%
same,residual activity,[25],83.1%
same,residual activity,[26],105%
same,residual activity,[27],101%
same,residual activity,[28],87%
same,residual activity,[29],108%
same,residual activity,[30],98.6%
same,residual activity,[31],97.9%
same,residual activity,[32],89.5%
same,residual activity,[33],98.3%
same,residual activity,[34],98.2%
same,residual activity,[35],103%
same,residual activity,[37],111%
same,residual activity,[38],94.1%
same,residual activity,[39],78.9%
same,residual activity,[40],107%
same,residual activity,[41],111%
